Data from patent US20230372263A1, “METHODS AND COMPOSITIONS FOR TREATING AMYOTROPHIC LATERAL SCLEROSIS” (Amylyx Pharmaceuticals, Inc., priority 2022, published 2023).

Assay: Phase II AMX3500 (CENTAUR) sparse sampling: steady-state plasma concentrations of TURSO/TUDCA, UDCA, GUDCA in ALS patients
Assay type: in vivo, human
Conditions: patients; comparison across studies
Outline: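 ALS patients dosed with one sachet daily for 3 weeks, then one sachet twice daily if tolerated, for 24 weeks, advised before a meal. Sparse plasma samples were taken 1 or 4 h post-dose at weeks 12 and 24, with sequence randomly assigned. Subgroups covered antibiotic use, eGFR (<90 vs ≥90 mL/min/1.73 m^2) and age (≥65 vs <65).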

Compound: O=C(O)Cc1ccccc1 [PAA, phenylacetate]
- accumulation in plasma after once- or twice-daily dosing: no accumulation
